Values of other authors as cited in patent US20180235992A1, “IMMUNOTHERAPIES FOR MALIGNANT, NEURODEGENERATIVE AND DEMYELINATING DISEASES BY THE USE OF TARGETED NANOCARRIERS” (RODOS BIOTARGET GMBH, priority 2015, published 2018).

What was measured:
pancreatic cancer cells = conditions: modulating miR-200 and miR-21 expression
pancreatic cancer model = conditions: in vivo
human melanoma cells = conditions: Fas Receptor/Caspase-8 pathway independent of p53
[1] = tested on: squamous cell carcinoma head and neck cell lines
pancreatic cancer = conditions: given intravenously, equal dose
[2] = tested on: Alzheimer's β-amyloid fibrils; conditions: in vitro
[3] = tested on: multiple myeloma cell lines
[4] = tested on: human vascular endothelial cells; conditions: in vitro
human pancreatic cancer = conditions: mouse, in vivo
[5] = tested on: Fibroblast Growth Factor-2-induced angiogenic response; conditions: in-vivo
[6] = tested on: human acute myelogenous leukemia cell line HL-60

Molecule	proliferation and apoptosis (mantle cell lymphoma)	gemcitabine sensitivity (pancreatic cancer cells)	antitumor activity of gemcitabine (pancreatic cancer model)	apoptosis (human melanoma cells)	apoptosis [1]	tumor weights and volumes (pancreatic cancer)	anti-amyloidogenic effects [2]	expression of NF-κB, Bcl-2 and Bcl-XL [3]	proliferation [4]	tumor growth and angiogenesis (human pancreatic cancer)	angiogenic response [5]	apoptosis [6]
COc1cc(/C=C/C(=O)CC(=O)/C=C/c2ccc(O)c(OC)c2)ccc1O [curcumin]	suppress proliferation, and induce apoptosis	induces gemcitabine sensitivity	potentiates the antitumor activity of gemcitabine	induces apoptosis	induces apoptosis	failed to cause a significant reduction	potent anti-amyloidogenic effects	suppresses expression	suppresses the proliferation	inhibits tumor growth and angiogenesis	inhibits	induces apoptosis
[DLys(6)]-LHRH-curcumin	–	–	–	–	–	caused a reduction in tumor weights and volumes	–	–	–	–	–	–
